Experimental data reported in patent publication US9340590B2 (priority 2011, dated 2016).
Where two headings read alike, the source gives them in different places. Positions of bridges follow the written chain, without caps; N, C: chain ends. Non-standard residues stand in square brackets, D forms with d. Residues, ends and D or L forms follow the SMILES beside them. Arg(Me2s) = CN=C(NC)NCCC[C@H](N)C(=O)O

Assays:
Assay in all cases: cell-based
hNav1.7 [1] = target: T1, hNav1.7 (Homo sapiens, UniProt Q15858); settings: Nav1.7 Use IC50
hNav1.3 [2] = target: T2, hNav1.3 (Homo sapiens, UniProt Q9NY46); assay type: cell-based; settings: Nav1.3 Use IC50
hNav1.7 [3] = target: T1, hNav1.7; assay type: cell-based; settings: IonWorks Quattro, use-dependent block, hNav1.7; read-out: IWQ Use Nav1.7
hNav1.5 [4] = target: T3, hNav1.5 (Homo sapiens, UniProt Q14524); settings: IonWorks Quattro, use-dependent block, hNav1.5; read-out: IWQ Use Nav1.5
hNav1.3 [5] = target: T2, hNav1.3; settings: IonWorks Quattro, use-dependent block, hNav1.3; read-out: IWQ Use Nav1.3
hNav1.5 [6] = target: T3, hNav1.5

T3 sequence (Q14524 whole entry, looked up): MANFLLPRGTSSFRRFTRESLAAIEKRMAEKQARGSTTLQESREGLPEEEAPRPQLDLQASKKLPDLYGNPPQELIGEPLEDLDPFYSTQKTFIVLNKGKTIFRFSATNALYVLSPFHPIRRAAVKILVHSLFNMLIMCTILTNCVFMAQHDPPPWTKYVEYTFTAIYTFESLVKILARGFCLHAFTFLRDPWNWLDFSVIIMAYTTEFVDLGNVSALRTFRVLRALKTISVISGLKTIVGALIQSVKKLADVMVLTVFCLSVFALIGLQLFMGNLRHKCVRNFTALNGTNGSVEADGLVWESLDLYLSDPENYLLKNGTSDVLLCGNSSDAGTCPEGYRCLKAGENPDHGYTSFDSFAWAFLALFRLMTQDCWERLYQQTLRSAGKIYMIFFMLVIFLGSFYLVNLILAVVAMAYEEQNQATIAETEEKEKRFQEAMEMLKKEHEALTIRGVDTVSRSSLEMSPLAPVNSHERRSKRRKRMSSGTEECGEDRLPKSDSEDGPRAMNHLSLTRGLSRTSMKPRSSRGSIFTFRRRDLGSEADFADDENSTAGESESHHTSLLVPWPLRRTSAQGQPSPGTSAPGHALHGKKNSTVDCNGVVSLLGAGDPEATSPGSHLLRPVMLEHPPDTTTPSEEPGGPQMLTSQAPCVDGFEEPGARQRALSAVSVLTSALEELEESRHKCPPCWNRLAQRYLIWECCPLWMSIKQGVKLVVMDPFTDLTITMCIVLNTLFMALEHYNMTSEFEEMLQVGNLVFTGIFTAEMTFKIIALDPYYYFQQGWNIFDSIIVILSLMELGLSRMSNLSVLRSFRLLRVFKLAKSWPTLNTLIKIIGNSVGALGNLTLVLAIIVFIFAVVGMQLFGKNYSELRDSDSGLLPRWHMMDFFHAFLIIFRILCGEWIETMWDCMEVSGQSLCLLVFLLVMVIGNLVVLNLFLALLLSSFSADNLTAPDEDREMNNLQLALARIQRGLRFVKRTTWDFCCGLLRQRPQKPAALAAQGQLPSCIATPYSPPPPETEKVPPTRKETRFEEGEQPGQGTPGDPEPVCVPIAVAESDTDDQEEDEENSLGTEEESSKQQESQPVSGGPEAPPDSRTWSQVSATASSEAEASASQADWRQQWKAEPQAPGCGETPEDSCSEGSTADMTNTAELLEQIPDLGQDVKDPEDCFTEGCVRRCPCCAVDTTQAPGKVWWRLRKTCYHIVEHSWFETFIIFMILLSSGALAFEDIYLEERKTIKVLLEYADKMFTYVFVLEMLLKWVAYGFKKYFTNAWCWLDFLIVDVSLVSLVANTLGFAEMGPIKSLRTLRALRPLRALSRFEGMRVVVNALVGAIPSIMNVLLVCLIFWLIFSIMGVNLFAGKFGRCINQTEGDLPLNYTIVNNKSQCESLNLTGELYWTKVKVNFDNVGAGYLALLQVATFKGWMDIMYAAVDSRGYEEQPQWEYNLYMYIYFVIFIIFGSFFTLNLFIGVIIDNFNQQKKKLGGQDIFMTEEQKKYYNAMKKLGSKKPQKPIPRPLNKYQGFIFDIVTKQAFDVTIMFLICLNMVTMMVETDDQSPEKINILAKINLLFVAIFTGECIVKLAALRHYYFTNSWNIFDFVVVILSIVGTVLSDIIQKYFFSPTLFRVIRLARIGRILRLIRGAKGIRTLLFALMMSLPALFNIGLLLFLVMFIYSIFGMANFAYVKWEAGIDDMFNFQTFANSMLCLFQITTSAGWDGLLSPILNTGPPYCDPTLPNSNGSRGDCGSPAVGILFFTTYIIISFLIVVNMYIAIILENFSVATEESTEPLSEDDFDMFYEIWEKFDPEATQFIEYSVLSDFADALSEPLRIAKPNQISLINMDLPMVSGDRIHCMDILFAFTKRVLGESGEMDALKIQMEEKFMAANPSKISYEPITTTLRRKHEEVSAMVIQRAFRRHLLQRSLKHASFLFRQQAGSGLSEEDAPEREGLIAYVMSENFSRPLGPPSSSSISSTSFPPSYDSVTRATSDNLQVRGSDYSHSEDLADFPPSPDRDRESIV
T2 sequence (Q9NY46 whole entry, looked up): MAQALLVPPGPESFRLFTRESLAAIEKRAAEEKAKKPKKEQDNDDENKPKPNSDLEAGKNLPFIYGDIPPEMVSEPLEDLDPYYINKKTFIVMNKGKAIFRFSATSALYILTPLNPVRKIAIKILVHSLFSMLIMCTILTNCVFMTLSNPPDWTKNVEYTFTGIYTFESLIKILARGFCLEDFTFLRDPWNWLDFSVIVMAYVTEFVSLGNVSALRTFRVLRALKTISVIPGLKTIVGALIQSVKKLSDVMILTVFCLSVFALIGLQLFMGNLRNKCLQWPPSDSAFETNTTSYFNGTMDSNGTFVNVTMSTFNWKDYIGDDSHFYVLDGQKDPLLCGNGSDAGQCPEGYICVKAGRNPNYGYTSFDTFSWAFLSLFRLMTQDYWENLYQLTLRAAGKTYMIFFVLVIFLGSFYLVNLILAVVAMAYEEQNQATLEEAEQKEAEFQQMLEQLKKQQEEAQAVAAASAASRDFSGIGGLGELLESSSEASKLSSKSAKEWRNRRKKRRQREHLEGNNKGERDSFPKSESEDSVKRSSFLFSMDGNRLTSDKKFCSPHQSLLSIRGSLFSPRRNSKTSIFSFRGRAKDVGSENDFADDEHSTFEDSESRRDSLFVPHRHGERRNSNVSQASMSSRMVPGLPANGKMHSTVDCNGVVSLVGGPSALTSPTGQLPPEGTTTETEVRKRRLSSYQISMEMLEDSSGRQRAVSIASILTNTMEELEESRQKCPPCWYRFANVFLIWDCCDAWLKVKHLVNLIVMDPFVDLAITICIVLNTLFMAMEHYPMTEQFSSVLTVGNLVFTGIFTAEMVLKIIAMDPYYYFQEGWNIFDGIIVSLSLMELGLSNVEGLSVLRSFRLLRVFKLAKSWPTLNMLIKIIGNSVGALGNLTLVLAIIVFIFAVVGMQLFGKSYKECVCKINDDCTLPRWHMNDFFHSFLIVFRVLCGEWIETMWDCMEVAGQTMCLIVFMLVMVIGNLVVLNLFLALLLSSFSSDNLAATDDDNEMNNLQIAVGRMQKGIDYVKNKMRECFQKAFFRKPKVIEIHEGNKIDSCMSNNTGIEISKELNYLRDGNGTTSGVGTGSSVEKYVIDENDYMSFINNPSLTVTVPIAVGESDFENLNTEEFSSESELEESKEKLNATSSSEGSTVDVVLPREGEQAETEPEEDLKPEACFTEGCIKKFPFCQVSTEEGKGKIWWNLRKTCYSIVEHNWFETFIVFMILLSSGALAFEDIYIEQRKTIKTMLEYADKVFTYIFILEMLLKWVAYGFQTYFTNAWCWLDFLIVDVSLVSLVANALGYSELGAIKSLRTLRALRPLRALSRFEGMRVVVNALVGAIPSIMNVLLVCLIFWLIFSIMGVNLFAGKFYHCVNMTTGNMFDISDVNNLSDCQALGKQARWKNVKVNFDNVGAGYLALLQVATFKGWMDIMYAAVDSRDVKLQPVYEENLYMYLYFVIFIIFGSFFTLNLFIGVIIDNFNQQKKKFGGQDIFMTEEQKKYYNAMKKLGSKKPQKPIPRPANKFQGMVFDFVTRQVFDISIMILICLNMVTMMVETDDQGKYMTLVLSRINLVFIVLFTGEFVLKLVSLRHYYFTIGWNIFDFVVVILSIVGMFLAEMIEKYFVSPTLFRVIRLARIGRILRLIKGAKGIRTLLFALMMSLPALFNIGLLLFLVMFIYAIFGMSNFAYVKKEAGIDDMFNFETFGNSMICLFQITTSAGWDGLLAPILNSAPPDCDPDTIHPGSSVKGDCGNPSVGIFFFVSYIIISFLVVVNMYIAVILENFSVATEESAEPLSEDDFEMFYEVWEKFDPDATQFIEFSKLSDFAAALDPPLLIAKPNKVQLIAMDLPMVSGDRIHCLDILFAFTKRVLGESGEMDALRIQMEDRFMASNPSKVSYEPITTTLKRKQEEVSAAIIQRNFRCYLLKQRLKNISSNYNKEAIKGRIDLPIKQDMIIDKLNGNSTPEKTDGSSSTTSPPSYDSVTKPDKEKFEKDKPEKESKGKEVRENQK

SMILES | IC50 (hNav1.7 [1]) [nM] | IC50 (hNav1.3 [2]) [nM] | IC50 (hNav1.7 [3]) [nM] | IC50 (hNav1.5 [4]) [nM] | IC50 (hNav1.3 [5]) [nM] | IC50 (hNav1.5 [6]) [nM]
CC[C@H](C)[C@@H]1NC(=O)[C@@H]2CSSC[C@@H]3NC(=O)[C@H](C(C)C)NC(=O)[C@H](CC(C)C)NC(=O)[C@H](CC(N)=O)NC(=O)[C@@H]4CCCN4C(=O)[C@H](CCCNC(=N)N)NC(=O)[C@H](CSSC[C@H](NC(=O)[C@@H](N)CC(=O)O)C(=O)N[C@@H](CC(C)C)C(=O)NCC(=O)N[C@@H](C)C(=O)N[C@@H](CCSC)C(=O)N[C@@H](CCCNC(=N)N)C(=O)N[C@@H](CCCCN)C(=O)N2)NC(=O)[C@H](CSSC[C@@H](C(=O)N[C@@H](CCCCN)C(=O)N[C@@H](Cc2ccc(O)cc2)C(=O)N[C@H](C(=O)N[C@@H](Cc2ccccc2)C(N)=O)C(C)C)NC(=O)[C@H](Cc2c[nH]c4ccccc24)NC(=O)[C@H](CCCCN)NC(=O)[C@H](Cc2cnc[nH]2)NC(=O)[C@H](CC(C)C)NC(=O)[C@H](CCCNC(=N)N)NC(=O)[C@H](CO)NC3=O)NC(=O)[C@H](CCCCN)NC(=O)[C@H](CC(=O)O)NC(=O)[C@H](CC(N)=O)NC(=O)[C@H](CC(=O)O)NC(=O)[C@@H]2CCCN2C1=O [[Ala5;Leu26]GpTx-1(1-34)] (H-DCLGAMRKCIPDNDKCCRPNLVCSRLHKWCKYVF-NH2; disulfide 2-17, 9-23, 16-30) | 49 | 470 |  |  |  | 
CC[C@H](C)[C@@H]1NC(=O)[C@@H]2CSSC[C@@H]3NC(=O)[C@H](C(C)C)NC(=O)[C@H](CC(C)C)NC(=O)[C@H](CC(N)=O)NC(=O)[C@@H]4CCCN4C(=O)[C@H](CCCNC(=N)N)NC(=O)[C@H](CSSC[C@H](NC(=O)[C@@H](N)CC(=O)O)C(=O)N[C@@H](CC(C)C)C(=O)NCC(=O)N[C@@H](C)C(=O)N[C@@H](Cc4ccccc4)C(=O)N[C@@H](CCCNC(=N)N)C(=O)N[C@@H](CCCCN)C(=O)N2)NC(=O)[C@H](CSSC[C@@H](C(=O)N[C@@H](CCCCN)C(=O)N[C@@H](Cc2ccc(O)cc2)C(=O)N[C@H](C(=O)N[C@@H](Cc2ccccc2)C(N)=O)C(C)C)NC(=O)[C@H](Cc2c[nH]c4ccccc24)NC(=O)[C@H](CCCNC(=N)N)NC(=O)[C@H](Cc2cnc[nH]2)NC(=O)[C@H](CC(C)C)NC(=O)[C@H](CCCNC(=N)N)NC(=O)[C@H](CO)NC3=O)NC(=O)[C@H](CCCCN)NC(=O)[C@H](CC(=O)O)NC(=O)[C@H](CC(N)=O)NC(=O)[C@H](CC(=O)O)NC(=O)[C@@H]2CCCN2C1=O [[Ala5;Phe6;Leu26;Arg28]GpTx-1(1-34)] (H-DCLGAFRKCIPDNDKCCRPNLVCSRLHRWCKYVF-NH2; disulfide 2-17, 9-23, 16-30) | 2 | 8 |  |  |  | 
CC[C@H](C)[C@@H]1NC(=O)[C@@H]2CSSC[C@@H]3NC(=O)[C@H](C(C)C)NC(=O)[C@H](CC(C)C)NC(=O)[C@H](CC(N)=O)NC(=O)[C@@H]4CCCN4C(=O)[C@H](CCCNC(=N)N)NC(=O)[C@H](CSSC[C@H](NC(=O)[C@@H](N)CC(=O)O)C(=O)N[C@@H](CC(C)C)C(=O)NCC(=O)N[C@@H](C)C(=O)N[C@@H](Cc4ccccc4)C(=O)N[C@@H](CCCNC(=N)N)C(=O)N[C@@H](CCCCN)C(=O)N2)NC(=O)[C@H](CSSC[C@@H](C(=O)N[C@@H](CCCCN)C(=O)N[C@@H](Cc2ccc(O)cc2)C(=O)N[C@H](C(=O)N[C@@H](Cc2ccccc2)C(N)=O)C(C)C)NC(=O)[C@H](Cc2c[nH]c4ccccc24)NC(=O)[C@H](CCCCN)NC(=O)[C@H](Cc2cnc[nH]2)NC(=O)[C@H](CC(C)C)NC(=O)[C@H](CCCNC(=N)N)NC(=O)[C@H](CO)NC3=O)NC(=O)[C@H](CCCCN)NC(=O)[C@H](CC(=O)O)NC(=O)[C@H](CC(N)=O)NC(=O)[C@H](CC(=O)O)NC(=O)[C@@H]2CCCN2C1=O [[Ala5;Phe6;Leu26]GpTx-1(1-34)] (H-DCLGAFRKCIPDNDKCCRPNLVCSRLHKWCKYVF-NH2; disulfide 2-17, 9-23, 16-30) |  | 11 |  |  |  | 
CC[C@H](C)[C@@H]1NC(=O)[C@@H]2CSSC[C@@H]3NC(=O)[C@H](C(C)C)NC(=O)[C@H](CC(C)C)NC(=O)[C@H](CC(N)=O)NC(=O)[C@@H]4CCCN4C(=O)[C@H](CCCNC(=N)N)NC(=O)[C@H](CSSC[C@H](NC(=O)[C@@H](N)CC(=O)O)C(=O)N[C@@H](CC(C)C)C(=O)NCC(=O)N[C@@H](C)C(=O)N[C@@H](Cc4c[nH]c5ccccc45)C(=O)N[C@@H](CCCNC(=N)N)C(=O)N[C@@H](CCCCN)C(=O)N2)NC(=O)[C@H](CSSC[C@@H](C(=O)N[C@@H](CCCCN)C(=O)N[C@@H](Cc2ccc(O)cc2)C(=O)N[C@H](C(=O)N[C@@H](Cc2ccccc2)C(N)=O)C(C)C)NC(=O)[C@H](Cc2c[nH]c4ccccc24)NC(=O)[C@H](CCCCN)NC(=O)[C@H](Cc2cnc[nH]2)NC(=O)[C@H]([C@@H](C)O)NC(=O)[C@H](CCCNC(=N)N)NC(=O)[C@H](CO)NC3=O)NC(=O)[C@H](CCCCN)NC(=O)[C@H](CC(=O)O)NC(=O)[C@H](CC(N)=O)NC(=O)[C@H](CC(=O)O)NC(=O)[C@@H]2CCCN2C1=O [[Ala5;Trp6]GpTx-1(1-34)] (H-DCLGAWRKCIPDNDKCCRPNLVCSRTHKWCKYVF-NH2; disulfide 2-17, 9-23, 16-30) | 57 | 81 |  |  |  | 
CC[C@H](C)[C@@H]1NC(=O)[C@@H]2CSSC[C@@H]3NC(=O)[C@H](C(C)C)NC(=O)[C@H](CC(C)C)NC(=O)[C@H](CC(N)=O)NC(=O)[C@@H]4CCCN4C(=O)[C@H](CCCNC(=N)N)NC(=O)[C@H](CSSC[C@H](NC(=O)[C@@H](N)CC(=O)O)C(=O)N[C@@H](CC(C)C)C(=O)NCC(=O)N[C@@H](Cc4ccccc4)C(=O)N[C@@H](CCSC)C(=O)N[C@@H](CCCNC(=NC)NC)C(=O)N[C@@H](CCCCN)C(=O)N2)NC(=O)[C@H](CSSC[C@@H](C(=O)N[C@@H](CCCCN)C(=O)N[C@@H](Cc2ccc(O)cc2)C(=O)N[C@H](C(=O)N[C@@H](Cc2ccccc2)C(N)=O)C(C)C)NC(=O)[C@H](Cc2c[nH]c4ccccc24)NC(=O)[C@H](CCCCN)NC(=O)[C@H](Cc2c[nH]cn2)NC(=O)[C@H]([C@@H](C)O)NC(=O)[C@H](CCCNC(=N)N)NC(=O)[C@H](CO)NC3=O)NC(=O)[C@H](CCCCN)NC(=O)[C@H](CC(=O)O)NC(=O)[C@H](CC(N)=O)NC(=O)[C@H](CC(=O)O)NC(=O)[C@@H]2CCCN2C1=O [[SDMA7]GpTx-1(1-34)] | 6 |  | 240 | 10300 | 120 | 14000
CC[C@H](C)[C@@H]1NC(=O)[C@@H]2CSSC[C@@H]3NC(=O)[C@H](C(C)C)NC(=O)[C@H](CC(C)C)NC(=O)[C@H](CC(N)=O)NC(=O)[C@@H]4CCCN4C(=O)[C@H](CCCNC(=N)N)NC(=O)[C@H](CSSC[C@H](NC(=O)[C@@H](N)CC(=O)O)C(=O)N[C@@H](CC(C)C)C(=O)NCC(=O)N[C@@H](Cc4ccccc4)C(=O)N[C@@H](CCSC)C(=O)N[C@@H](CCCNC(=N)N)C(=O)N[C@@H](CCCNC(=NC)NC)C(=O)N2)NC(=O)[C@H](CSSC[C@@H](C(=O)N[C@@H](CCCCN)C(=O)N[C@@H](Cc2ccc(O)cc2)C(=O)N[C@H](C(=O)N[C@@H](Cc2ccccc2)C(N)=O)C(C)C)NC(=O)[C@H](Cc2c[nH]c4ccccc24)NC(=O)[C@H](CCCCN)NC(=O)[C@H](Cc2c[nH]cn2)NC(=O)[C@H]([C@@H](C)O)NC(=O)[C@H](CCCNC(=N)N)NC(=O)[C@H](CO)NC3=O)NC(=O)[C@H](CCCCN)NC(=O)[C@H](CC(=O)O)NC(=O)[C@H](CC(N)=O)NC(=O)[C@H](CC(=O)O)NC(=O)[C@@H]2CCCN2C1=O [[SDMA8]GpTx-1(1-34)] (H-DCLGFMR[Arg(Me2s)]CIPDNDKCCRPNLVCSRTHKWCKYVF-NH2; disulfide 2-17, 9-23, 16-30) | 5 |  | 200 | 9050 | 200 | > 10000
CC[C@H](C)[C@@H]1NC(=O)[C@@H]2CSSC[C@@H]3NC(=O)[C@H](C(C)C)NC(=O)[C@H](CC(C)C)NC(=O)[C@H](CC(N)=O)NC(=O)[C@@H]4CCCN4C(=O)[C@H](CCCNC(=N)N)NC(=O)[C@H](CSSC[C@H](NC(=O)[C@@H](N)CC(=O)O)C(=O)N[C@@H](CC(C)C)C(=O)NCC(=O)N[C@@H](Cc4ccccc4)C(=O)N[C@@H](CCSC)C(=O)N[C@@H](CCCNC(=N)N)C(=O)N[C@@H]([C@@H](C)O)C(=O)N2)NC(=O)[C@H](CSSC[C@@H](C(=O)N[C@@H](CCCCN)C(=O)N[C@@H](Cc2ccc(O)cc2)C(=O)N[C@H](C(=O)N[C@@H](Cc2ccccc2)C(N)=O)C(C)C)NC(=O)[C@H](Cc2c[nH]c4ccccc24)NC(=O)[C@H](CCCCN)NC(=O)[C@H](Cc2c[nH]cn2)NC(=O)[C@H]([C@@H](C)O)NC(=O)[C@H](CCCNC(=N)N)NC(=O)[C@H](CO)NC3=O)NC(=O)[C@H](CCCCN)NC(=O)[C@H](CC(=O)O)NC(=O)[C@H](CC(N)=O)NC(=O)[C@H](CC(=O)O)NC(=O)[C@@H]2CCCN2C1=O [[Thr8]GpTx-1(1-34)] (H-DCLGFMRTCIPDNDKCCRPNLVCSRTHKWCKYVF-NH2; disulfide 2-17, 9-23, 16-30) | 9 |  | 350 | 9860 | 150 | > 10000
